# Experimental data as given in ChEMBL document CHEMBL4765421, “Synthesis of natural 3'-Prenylchalconaringenin and biological evaluation of ameliorating non-alcoholic fatty liver disease and metabolic syndrome” (Eur J Med Chem, 2020).
# Active and inactive are the calls of the source. The rule behind the calls is not given here.
# Columns and labels:
# [1] = tested on: Mus musculus; assay: Hypolipidemic activity in tyloxapol-induced Kunming mouse model of hyperlipidemia assessed as reduction in liver MPO level at 50 to 100 mg/kg, po measured after 24 hrs; assay type: functional, organism-based; conditions: dose 50-100 mg/kg
# [2] = tested on: Mus musculus; assay: Hypolipidemic activity in tyloxapol-induced Kunming mouse model of hyperlipidemia assessed as increase in serum SOD level at 100 mg/kg, po measured after 24 hrs; assay type: functional, organism-based
# [3] = tested on: Mus musculus; assay: Hypolipidemic activity in tyloxapol-induced Kunming mouse model of hyperlipidemia assessed as kidney index at 100 mg/kg, po measured after 24 hrs (reference value: 11.20 +/- 0.58); assay type: functional
# [4] = tested on: 3T3-L1; assay: Hypolipidemic activity in mouse 3T3-L1 preadipocytes assessed as reduction in lipid content at 15 uM by Oil Red O staining based assay relative to control; assay type: functional; set-up: scale not given: the % may be the effect or the level left
# [5] = tested on: 3T3-L1; assay: Hypolipidemic activity in mouse 3T3-L1 mature adipocytes assessed as reduction in lipid content at 5 uM by Oil Red O staining based assay relative to control; assay type: functional; set-up: scale not given: the % may be the effect or the level left
# [6] = tested on: Mus musculus; assay: Hypolipidemic activity in tyloxapol-induced Kunming mouse model of hyperlipidemia assessed as reduction in serum total cholesterol level administered orally measured after 24 hrs; assay type: functional, organism-based
# [7] = tested on: Mus musculus; assay: Hypolipidemic activity in tyloxapol-induced Kunming mouse model of hyperlipidemia at 50 to 100 mg/kg, po measured after 24 hrs by Masson's trichrome staining based assay; assay type: functional, organism-based; conditions: dose 50-100 mg/kg
# [8] = tested on: 3T3-L1; assay: Hypolipidemic activity in mouse 3T3-L1 mature adipocytes assessed as reduction in lipid content at 15 uM by Oil Red O staining based assay relative to control; assay type: functional; set-up: scale not given: the % may be the effect or the level left
# [9] = tested on: Mus musculus; assay: Hypolipidemic activity in tyloxapol-induced Kunming mouse model of hyperlipidemia assessed as reduction in fatty liver phenotype at 50 to 100 mg/kg, po measured after 24 hrs; assay type: functional, organism-based; conditions: dose 50-100 mg/kg
# [10] = tested on: Mus musculus; assay: In vivo induction of AMPK in tyloxapol-induced Kunming mouse model of hyperlipidemia assessed as increase in ACC phosphorylation in white adipose tissue at 50 to 100 mg/kg, po measured after 24 hrs by Western blot analysis; assay type: functional, organism-based; conditions: dose 50-100 mg/kg
# [11] = tested on: Mus musculus; assay: Hypolipidemic activity in tyloxapol-induced Kunming mouse model of hyperlipidemia assessed as reduction in serum ALT level administered orally measured after 24 hrs; assay type: functional, organism-based
# [12] = tested on: Mus musculus; assay: Hypolipidemic activity in tyloxapol-induced Kunming mouse model of hyperlipidemia assessed as reduction in liver fibrosis at 50 to 100 mg/kg, po measured after 24 hrs by Masson's trichrome staining based assay; assay type: functional, organism-based; conditions: dose 50-100 mg/kg
# [13] = tested on: Mus musculus; assay: In vivo effect on PPAR signaling in tyloxapol-induced Kunming mouse model of hyperlipidemia assessed as decrease in PPARgamma expression in liver at 50 to 100 mg/kg, po measured after 24 hrs by Western blot analysis; assay type: functional, organism-based; conditions: dose 50-100 mg/kg
# [14] = tested on: Mus musculus; assay: In vivo induction of AMPK in tyloxapol-induced Kunming mouse model of hyperlipidemia assessed as increase in AKT phosphorylation in liver at 50 to 100 mg/kg, po measured after 24 hrs by Western blot analysis; assay type: functional, organism-based; conditions: dose 50-100 mg/kg
# [15] = tested on: 3T3-L1; assay: Activation of AMPK in mouse 3T3-L1 preadipocytes assessed as increase in AMPK phosphorylation at 0.1 to 15 uM by Western blot analysis; assay type: cell-based; conditions: filed as activator, dose 0.1-15 µM
# [16] = tested on: Mus musculus; assay: In vivo induction of AMPK in tyloxapol-induced Kunming mouse model of hyperlipidemia assessed as increase in CPT-1A phosphorylation in white adipose tissue at 50 to 100 mg/kg, po measured after 24 hrs by Western blot analysis; assay type: functional, organism-based; conditions: dose 50-100 mg/kg
# [17] = tested on: Mus musculus; assay: In vivo effect on PPAR signaling in tyloxapol-induced Kunming mouse model of hyperlipidemia assessed as decrease in PPARgamma expression in white adipose tissue at 50 to 100 mg/kg, po measured after 24 hrs by Western blot analysis; assay type: functional, organism-based; conditions: dose 50-100 mg/kg
# [18] = tested on: Mus musculus; assay: In vivo induction of AMPK in tyloxapol-induced Kunming mouse model of hyperlipidemia assessed as increase in ACC phosphorylation in liver at 50 to 100 mg/kg, po measured after 24 hrs by Western blot analysis; assay type: functional, organism-based; conditions: dose 50-100 mg/kg
# [19] = tested on: Mus musculus; assay: Hypolipidemic activity in tyloxapol-induced Kunming mouse model of hyperlipidemia assessed as liver index at 50 mg/kg, po measured after 24 hrs (reference value: 65.00 +/- 0.87); assay type: functional
# [20] = tested on: HepG2; assay: Cytotoxicity against human HepG2 cells assessed as reduction in cell viability at 10 to 20 uM by MTT assay; assay type: cell-based; conditions: hepg2, 20 µM, dose 10-20 µM
# [21] = tested on: HepG2; assay: Hypolipidemic activity in oleic, palmitic, linoleic and arachidonic acid 29:47:18:6 (v/v)-induced hyperlipidemia in human HepG2 cells assessed as reduction in lipid content at 7.5 uM by Oil Red O staining based assay relative to control; assay type: functional; set-up: scale not given: the % may be the effect or the level left
# [22] = tested on: 3T3-L1; assay: Cytotoxicity against mouse 3T3-L1 cells assessed as reduction in cell viability by MTT assay; assay type: cell-based
# [23] = tested on: Mus musculus; assay: In vivo effect on PPAR signaling in tyloxapol-induced Kunming mouse model of hyperlipidemia assessed as decrease in PPARbeta expression in white adipose tissue at 50 to 100 mg/kg, po measured after 24 hrs by Western blot analysis; assay type: functional, organism-based; conditions: dose 50-100 mg/kg
# [24] = tested on: Mus musculus; assay: In vivo induction of AMPK in tyloxapol-induced Kunming mouse model of hyperlipidemia assessed as decrease in SREBP1-C expression in liver at 50 to 100 mg/kg, po measured after 24 hrs by Western blot analysis; assay type: functional, organism-based; conditions: dose 50-100 mg/kg
# [25] = tested on: HepG2; assay: Hypolipidemic activity in oleic, palmitic, linoleic and arachidonic acid 29:47:18:6 (v/v)-induced hyperlipidemia in human HepG2 cells assessed as reduction in triglyceride content; assay type: functional, cell-based
# [26] = tested on: 3T3-L1; assay: Hypolipidemic activity in mouse 3T3-L1 mature adipocytes assessed as reduction in lipid content at 1 uM by Oil Red O staining based assay relative to control; assay type: functional; set-up: scale not given: the % may be the effect or the level left
# [27] = tested on: 3T3-L1; assay: Hypolipidemic activity in mouse 3T3-L1 mature adipocytes assessed as reduction in triglyceride content; assay type: functional, cell-based
# [28] = tested on: Mus musculus; assay: Hypolipidemic activity in tyloxapol-induced Kunming mouse model of hyperlipidemia assessed as reduction in liver triglyceride level administered orally measured after 24 hrs; assay type: functional, organism-based
# [29] = tested on: 3T3-L1; assay: Hypolipidemic activity in mouse 3T3-L1 preadipocytes assessed as reduction in lipid content at 10 uM by Oil Red O staining based assay relative to control; assay type: functional; set-up: scale not given: the % may be the effect or the level left
# [30] = tested on: Mus musculus; assay: Hypolipidemic activity in tyloxapol-induced Kunming mouse model of hyperlipidemia assessed as liver index at 100 mg/kg, po measured after 24 hrs (reference value: 65.00 +/- 0.87); assay type: functional
# [31] = tested on: HepG2; assay: Activation of AMPK in oleic, palmitic, linoleic and arachidonic acid 29:47:18:6 (v/v)-induced human HepG2 cells assessed as increase in ACC phosphorylation at 1 uM by Western blot analysis relative to control
# [32] = tested on: Mus musculus; assay: Hypolipidemic activity in tyloxapol-induced Kunming mouse model of hyperlipidemia assessed as perirenal white adipose tissue index at 100 mg/kg, po measured after 24 hrs (reference value: 18.14 +/- 1.44); assay type: functional
# [33] = tested on: Mus musculus; assay: In vivo induction of AMPK in tyloxapol-induced Kunming mouse model of hyperlipidemia assessed as decrease in SREBP1-C expression in white adipose tissue at 50 to 100 mg/kg, po measured after 24 hrs by Western blot analysis; assay type: functional, organism-based; conditions: dose 50-100 mg/kg
# [34] = tested on: Mus musculus; assay: Hypolipidemic activity in tyloxapol-induced Kunming mouse model of hyperlipidemia assessed as reduction in serum LDL level administered orally measured after 24 hrs; assay type: functional, organism-based
structure (smiles),measurement,setting,value
CC(C)=CCC/C(C)=C/Cc1c(O)cc(O)c(C(=O)/C=C/c2ccc(O)cc2)c1O,Activity,[1],Active
same,Activity,[2],Active
same,Activity_index,[3],9.29
same,Activity,[4],83.91%
same,Activity,[5],71.33%
same,Activity,[6],Dose-dependent effect
same,Activity,[7],Active
same,Activity,[8],72.12%
same,Activity,[9],Active
same,Activity,[10],Active
same,Activity,[11],Dose-dependent effect
same,Activity,[12],Active
same,Activity,[13],Active
same,Activity,[14],Active
same,Activity,[15],Active
same,Activity,[16],Active
same,Activity,[17],Active
same,Activity,[18],Active
same,Activity_index,[19],55.64
same,Activity,[20],Non-Toxic
same,Activity,[21],43.86%
same,Activity,[22],Non-Toxic
same,Activity,[23],Active
same,Activity,[24],Active
same,Activity,[25],Dose-dependent effect
same,Activity,[26],39.16%
same,Activity,[27],Dose-dependent effect
same,Activity,[28],Dose-dependent effect
same,Activity,[29],67.87%
same,Activity_index,[30],52.78
same,Activity,[31],31.7%
same,Activity_index,[32],9.83
same,Activity,[33],Active
same,Activity,[34],Dose-dependent effect
